In patent US10189803B2, “Synthesis of therapeutic and diagnostic drugs centered on regioselective and stereoselective ring opening of aziridinium ions” (ILLINOIS INSTITUTE OF TECHNOLOGY, priority 2008, dated 2019):

Key:
HT29 cancer cells = assay: Fluorescence imaging of cellular uptake in live HT29 cancer cells; type: cell-based, Human; settings: 50 μM, 0.5 h incubation
Source text: In order to visualize cellular uptake using fluorescence imaging, C-NE3TA was conjugated with an organic fluorescent moiety, NBD to produce C-NE3TA-NBD (FIG. 40). Thus, the starting material 15 was reacted with NBD-Cl to provide the fluorescent conjugate 16. t-Butyl groups in Compound 16 were removed by treating 4M HCl in 1,4-dioxane. C-NE3TA has the respective excitation and emission wavelength of 446 nm and 512 nm. Fluorescence and phase contrast images of control HT29 cells or HT29 cells incubated with C-NE3TA-NBD (50 μM) were obtained using a confocal microscope with a band-pass filter set at 436/20 nm (excitation) and 535/30 nm (emission). […] It was noted that the control HT29 colon cancer cells also emit auto-fluorescence at the wavelength of excitation. While polyaminocarboxylate NE3TA is too hydrophilic to enter the cancer cells, C-NE3TA-NBD containing liphophilic moieties, both benzyl and NBD group is proposed to penetrate into the cells resulting in the punctuate present in the cancer cells.
Fluorescence Imaging of live cancer cells. HT29 cancer cells were plated in glass cover slips which placed in 6-well plates, and were incubated with growth media in a humidified atmosphere with 5% CO2 at 37° C. overnight. Control cells or cells containing C-NE3TA-NBD (50 μM, H2O) were incubated with media for 0.5 h under 5% CO2 at 37° C. […]
Fluorescence imaging of live cancer cells. […]

[1] = Complexation kinetics with Bi(III), Arsenazo III (AAIII) spectroscopic competing reaction; type: physicochemical; settings: pH 4.0 (0.15M NH4OAc), 25° C., 1 hour
Procedure: The novel ligand DEPA was further evaluated for the complexation kinetics with other metals. The complexation kinetics of the ligand DEPA with Bi(III) was determined using a well-known spectroscopic competing reaction with AAIII according to a modification of the reported procedure (Kodama, M.; Koike, T.; Mahatma, A. B.; Kimura, E. Inorg. Chem. 1991, 30, 1270). AAIII is known to form a weak complex with many different metals, which produce a UV absorbance maximum between ˜652 nm. However, uncomplexed AAIII absorb little at this wavelength. When introduced to a solution containing the AAIII-metal complex, a chelate can compete with AAIII for the metal. The idea is that if the chelate is more capable of binding the metal than AAIII, the metal will dissociate from the AAIII complex and form a complex with the chelate leading to the decrease in the absorbance at the wavelength. The absorbance (A652) for AAIII-Bi(III) complex was measured in the absence and in the presence of the ligands over 1 hour at rt. The complexation kinetics of Bi(III) was determined at pH 4.0 as hydrolysis occurs at a higher pH. The complexation result of the new ligands studied herein was compared to that of DOTA.
General procedure for complexation kinetics using AAIII. The kinetics experiments were performed as previously described. […]

[2] = Complexation kinetics with Lu(III), AAIII assay; type: physicochemical
Procedure: In summary, the novel decadentate ligand DEPA having both macrocyclic and acyclic metal binding moieties was efficiently prepared.
General procedure for complexation kinetics using AAIII. The kinetics experiments were performed as previously described. Ultrapure ammonium acetate (Aldrich, #431311) and hydrochloric acid solution (J. T. Baker, #JT6900-5) were purchased and used as received. All buffer solutions were prepared using deionized water (Milli-Q®, 18 MΩ). Metal-free stock solutions of all NH4OAc buffers (0.15 M, pH 4 or pH 4.5) were prepared using Chelex-100 resin (100-200 mesh, Bio-Rad Lab, Hercules, Calif.). Chelex resin (5 g) was added into the butter solution (100 mL) and the mixture was shaken for 1 h in a shaker (Eberbach), stored in the refrigerator overnight, and filtered through a Corning filter system (430513, pore size […]). A 15 μM AAIII solution in 0.15 M NH4OAc (pH 4 or pH 4.5) were prepared by adding AAIII (5.82 mg) to the NH4OAc buffer (500 mL). A solution of Bi(III)-AAIII (7.5 μM) was freshly prepared by mixing AAIII solution (15 μM, 50 mL) in 0.15 M NH4OAc (pH 4) with Bi(III) atomic absorption standard solution (79 μL, 995 μg/mL). A solution of Lu(III)-AAIII (1.8 μM) was freshly prepared by mixing AAIII solution ([…], 50 mL) in 0.15 M NH4OAc buffer (pH 4.5) with Lu(III) atomic absorption standard solution (15.4 μL, 1014 μg/ml). […]

Hela cells [3] = assay: Antiproliferative activity, MTS assay, HeLa cells; type: cell-based, Human; settings: for IC50: 72 h incubation, MTS; for cytotoxicity in HeLa cells over a series of concentrations (in words): FIG. 18
Procedure: Cell culture Human cervix HeLa cell line was obtained from ATCC (Rockville, Md.) and cultured in minimum essential medium (MEM) with L-glutamine (2 mM), Earle's BSS and sodium bicarbonate (1.5 g/L), supplemented with 10% fetal bovine serum (FBS), non-essential amino acids (0.1 mM), sodium pyruvate (1 mM) and antibiotic/antimycotic solution in a humidified atmosphere with 5% CO2 at 37° C. […] Lung fibroblast MRC-5 cell line was obtained from ATCC (Rockville, Md.) and cultured in ATCC formulated EMEM, supplemented with 10% fetal bovine serum (FBS) in a humidified atmosphere with 5% CO2 at 37° C.
(§1) Antiproliferative Activity. Cells were seeded onto 96-well plate at density of 2,000 cells for Hela cells or 5,000 cells for HT29 cells or 5,000 cells for MRC-5 per well in 0.1 mL complete medium and allowed to attach for 24 h. Varying concentrations of the test compounds in the final volume of 0.1 mL complete medium were then added in at least five series dilutions and incubated for 72 h. To measure cell proliferation, the Cell Titer 96 aqueous nonreactive cell proliferation assay (Promega Life Sciences, Madison, Wis.) was used according to the manufacturer's instructions. Briefly, MTS (2 mg/mL) and PMS (0.92 mg/ml) were mixed in a ratio of 20:1. An aliquot (20 μL) of the MTS/PMS mixture was added into each well, and the plate was incubated for 3 h at 37° C. Optical absorbance at 490 nm was then recorded with an enzyme-linked immunosorbent assay (ELISA) microtiter plate reader (Biotek). Each experiment was done at least in triplicate. Antiproliferative activity of the test compounds was expressed as the fraction of optical densities of treated the cells relative to the untreated solvent controls.^31 The data were plotted in GraphPad Prizm 3.0. Nonlinear regression analysis was used to determine IC50 values.
Cell culture. Human cervix HeLa cell line was obtained from ATCC (Rockville, Md.) and cultured in minimum essential medium (MEM) with L-glutamine (2 mM), Earle's BSS and sodium bicarbonate (1.5 g/L), supplemented with 10% fetal bovine serum (FBS), non-essential amino acids (0.1 mM), sodium pyruvate (1 mM) and antibiotic/antimycotic solution in a humidified atmosphere with 5% CO2 at 37° C.
as §1, with “activity.” for “Activity.”, “cells” for “cells or 5,000 cells for MRC-5”, “controls.” for “controls.^31”

HT29 cells = assay: Antiproliferative activity, MTS assay, HT29 cells; type: cell-based, Human; settings: 72 h incubation
Method in brief: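 HeLa cells (2,000/well) and HT29 cells (5,000/well) were allowed to attach for 24 h, then exposed to at least five compound dilutions for 72 h. Viability was read by MTS/PMS reduction (3 h, 37° C, A490). IC50 was obtained by nonlinear regression of OD as a fraction of solvent control, at least in triplicate.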

MRC-5 cells = assay: Antiproliferative activity in non-cancer lung fibroblast MRC-5 cells; type: cell-based, human; settings: FIG. 20
Procedure: The cytotoxicity of the chelators in the cancer cells was compared to their cytotoxicities in non-cancer cells using human lung fibroblast cell (MRC-5).
Cell culture Human cervix HeLa cell line was obtained from ATCC (Rockville, Md.) and cultured in minimum essential medium (MEM) with L-glutamine (2 mM), Earle's BSS and sodium bicarbonate (1.5 g/L), supplemented with 10% fetal bovine serum (FBS), non-essential amino acids (0.1 mM), sodium pyruvate (1 mM) and antibiotic/antimycotic solution in a humidified atmosphere with 5% CO2 at 37° C. Human colon cancer cell line HT29 was maintained in a humidified atmosphere with 5% CO2 at 37° C. in RPMI-1640 medium, containing 10% FBS with L-glutamine and antibiotic/antimycotic. Lung fibroblast MRC-5 cell line was obtained from ATCC (Rockville, Md.) and cultured in ATCC formulated EMEM, supplemented with 10% fetal bovine serum (FBS) in a humidified atmosphere with 5% CO2 at 37° C.
Antiproliferative Activity. […] Optical absorbance at 490 nm was then recorded with an enzyme-linked immunosorbent assay (ELISA) microtiter plate reader (Biotek). […] Antiproliferative activity of the test compounds was expressed as the fraction of optical densities of treated the cells relative to the untreated solvent controls.^31 The data were plotted in GraphPad Prizm 3.0. […]

Hela cells [4] = assay: Iron saturation experiment, Hela cell growth (MTS); type: cell-based, Human; settings: for effect on Hela cells saturated with Fe(III)-citrate (in words): chelator 50 μM, Fe(III)-citrate 50 μM
Procedure: Cytotoxicity of the new chelators was measured in the HeLa and HT29 cancer cells and compared to that of the clinically used iron chelators DFO and DTPA. […] The preliminary cell culture experiments were performed to see ifNETA is an effective cytotoxic agent. […] In order to investigate the effect of the chelators on the cellular growth, the Hela cancer cells saturated with Fe(III)-citrate (50 μM) were incubated with each of the chelators (50 μM).
Iron Saturation Experiment Hela Cells were inoculated onto 96-well plates at density of 2,000 per well in 0.1 mL complete medium and incubated for 24 h. […] Control samples containing no ferric citriate were also tested. […] After the incubation, cells proliferation rates were evaluated by MTS assay.

Structure (SMILES)	cellular uptake by fluorescence imaging (in words) (HT29 cancer cells)	complexation with Bi(III) (absorbance at 652 nm vs time, in words) [1]	complexation with Lu(III) (in words) [2]	IC50 (Hela cells [3]) [µM]	cytotoxicity in HeLa cells over a series of concentrations (in words) (Hela cells [3])	IC50 (HT29 cells) [µM]	viability of normal MRC-5 cells compared to cancer cells (in words) (MRC-5 cells)	effect on Hela cells saturated with Fe(III)-citrate (in words) (Hela cells [4])	HeLa cell survival (in words) (Hela cells [4]; free ligand 50 μM, no ferric citrate)
O=C(O)CNC(Cc1ccc(Nc2ccc([N+](=O)[O-])c3nonc23)cc1)CN1CCN(CC(=O)O)CCN(CC(=O)O)CC1 (centres unmarked) [C-NE3TA-NBD, (4-Carboxymethyl-7-{2-(carboxymethyl-amino)-3-[4-(7-nitro-benzo[1,2,5]oxadiazol-4-ylamino)-phenyl]-propyl}-[1,4,7]triazonan-1-yl)-acetic acid]	does accumulate in the HT29 cancer cells								
O=C(O)CN1CCN(CCN(CC(=O)O)CC(=O)O)CCN(CC(=O)O)CCN(CC(=O)O)CC1 [DEPA, {7-[2-(Bis-carboxymethyl-amino)-ethyl]-4,10-bis-carboxymethyl-1,4,7,10-tetraazacyclo-dodec-1-yl}-acetic acid]		quite prompt and substantial binding	slow in binding						
CC(=O)N(O)CCCCCNC(=O)CCC(=O)N(O)CCCCCNC(=O)CCC(=O)N(O)CCCCCN [DFO, desferoxamine, reference compound]				> 50	not concentration-dependent	36.1 ± 1.4	little change in cell viability	modest increase in cell viability	
O=C(O)CN(CCN(CC(=O)O)CC(=O)O)CCN(CC(=O)O)CC(=O)O [DTPA, diethylenepentaacetic acid, reference compound]				264 ± 36.2	almost no cytotoxicity	39.1 ± 4	much enhanced viability of normal cells	almost no anti-proliferative activity	almost all HeLa cells incubated with DTPA (50 μM) survived
